According to patent US10172832B2, “Amide derivatives of N-urea substituted amino acids as formyl peptide receptor like-1 (FPRL-1) receptor modulators” (Allergan, Inc., priority 2011, dated 2019):

Biological target: T1, FPRL-1 (Homo sapiens, UniProt P25090)
T1 construct: expressed in transfected cells
T1 sequence (P25090 1-351): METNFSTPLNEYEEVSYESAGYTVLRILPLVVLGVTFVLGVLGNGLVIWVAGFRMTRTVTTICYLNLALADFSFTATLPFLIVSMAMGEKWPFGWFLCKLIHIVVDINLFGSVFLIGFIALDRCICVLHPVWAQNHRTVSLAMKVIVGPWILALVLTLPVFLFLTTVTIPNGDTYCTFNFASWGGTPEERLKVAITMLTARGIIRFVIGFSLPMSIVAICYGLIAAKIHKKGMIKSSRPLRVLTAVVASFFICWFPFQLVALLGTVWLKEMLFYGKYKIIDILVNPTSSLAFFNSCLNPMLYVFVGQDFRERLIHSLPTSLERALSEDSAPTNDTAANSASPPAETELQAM
Test: compound-induced calcium activity on FLIPR Tetra in CHO-Gα16 cells stably expressing FPRL1
Type: cell-based
Conditions: for FPRL-1 Ga16-CHO (Rel. eff.): relative efficacy; for EC50: tested 0.61 to 10,000 nM, read-out: FPRL-1 Ga16-CHO EC50
Method: CHO-Gα16 cells stably expressing FPRL1 were cultured in (F12, 10% FBS, 1% PSA, 400 μg/ml geneticin and 50 μg/ml hygromycin) and HEK-Gqi5 cells stable expressing FPR1 were cultured in (DMEM high glucose, 10% FBS, 1% PSA, 400 μg/ml geneticin and 50 μg/ml hygromycin). In general, the day before the experiment, 18,000 cells/well were plated in a 384-well clear bottom poly-d-lysine coated plate. The following day the screening compound-induced calcium activity was assayed on the FLIPR^Tetra. The drug plates were prepared in 384-well microplates using the EP3 and the MultiPROBE robotic liquid handling systems. Compounds were tested at concentrations ranging from 0.61 to 10,000 nM. Results are expressed as EC50 (nM) and efficacy values.

For CC(C)CC(C)(NC(=O)Nc1ccc(Br)cc1)C(=O)NCC(=O)O (stereo not drawn) [Compound 56, {[2-{[(4-bromophenyl)carbamoyl]amino}-2,4-dimethylpentanoyl]amino}acetic acid], the “FPRL-1 Ga16-CHO (Rel. eff.)” value was “(0.98)” and the EC50 was 22 nM.
CCC(CC)(NC(=O)Nc1ccc(Br)cc1)C(=O)NCC(=O)OC(C)(C)C [Compound 57, tert-butyl {[2-{[(4-bromophenyl)carbamoyl]amino}-2-ethylbutanoyl]amino}acetate] was tested, and the “FPRL-1 Ga16-CHO (Rel. eff.)” value was “(1.03)” and the EC50 was 31 nM.
In the case of CCC(CC)(NC(=O)Nc1ccc(Br)cc1)C(=O)NCC(=O)O [Compound 58, {[2-{[(4-bromophenyl)carbamoyl]amino}-2-ethylbutanoyl]amino}acetic acid], the “FPRL-1 Ga16-CHO (Rel. eff.)” value is reported as “(1.04)” and the EC50 is reported as 19 nM.
For CC(C)(C)OC(=O)CNC(=O)C(C)(C)NC(=O)Nc1ccc(Br)cc1 [Compound 59, tert-butyl {[2-{[(4-bromophenyl)carbamoyl]amino}-2-methylpropanoyl]amino}acetate], the “FPRL-1 Ga16-CHO (Rel. eff.)” value was “(1.02)” and the EC50 was 114 nM.
In the case of CC(C)(NC(=O)Nc1ccc(Br)cc1)C(=O)NCC(=O)O [Compound 60, {[2-{[(4-bromophenyl)carbamoyl]amino}-2-methylpropanoyl]amino}acetic acid], the “FPRL-1 Ga16-CHO (Rel. eff.)” value is reported as “(0.99)” and the EC50 is reported as 480 nM.
CC(C)C[C@H](NC(=O)Nc1ccc(Br)cc1)C(=O)NCC(=O)N(C)C [Compound 61, (2S)-2-{[(4-bromophenyl)carbamoyl]amino}-N-[2-(dimethylamino)-2-oxoethyl]-4-methylpentanamide] was tested, and the “FPRL-1 Ga16-CHO (Rel. eff.)” value was “(0.90)” and the EC50 was 1.4 nM.
For CC(C)C[C@H](NC(=O)Nc1ccc(C(F)(F)F)cc1)C(=O)NCC(=O)OC(C)(C)C [Compound 62, tert-butyl {[(2S)-4-methyl-2-({[4-(trifluoromethyl)phenyl]carbamoyl}amino)pentanoyl]amino}acetate], the “FPRL-1 Ga16-CHO (Rel. eff.)” value was “(0.81)” and the EC50 was 309 nM.
In the case of CC(C)C[C@H](NC(=O)Nc1ccc(C(F)(F)F)cc1)C(=O)NCC(=O)O [Compound 63, {[(2S)-4-methyl-2-({[4-(trifluoromethyl)phenyl]carbamoyl}amino)pentanoyl]amino}acetic acid], the “FPRL-1 Ga16-CHO (Rel. eff.)” value is reported as “(0.99)” and the EC50 is reported as 1.8 nM.
CC[C@@H](C)[C@@H](NC(=O)Nc1ccc(Br)cc1)C(=O)NCC(=O)OC(C)(C)C [Compound 64, tert-butyl {[(2R,3R)-2-{[(4-bromophenyl)carbamoyl]amino}-3-methylpentanoyl]amino}acetate] was tested, and the “FPRL-1 Ga16-CHO (Rel. eff.)” value was “(0.44)” and the EC50 was 3970 nM.
For CC[C@@H](C)[C@@H](NC(=O)Nc1ccc(Br)cc1)C(=O)NCC(=O)O [Compound 65, {[(2R,3R)-2-{[(4-bromophenyl)carbamoyl]amino}-3-methylpentanoyl]amino}acetic acid], the “FPRL-1 Ga16-CHO (Rel. eff.)” value was “(0.45)” and the EC50 was 19300 nM.
With CC(C)C[C@@H](NC(=O)Nc1ccc(Br)cc1)C(=O)NCC(=O)OC(C)(C)C [Compound 66, tert-butyl {[(2R)-2-{[(4-bromophenyl)carbamoyl]amino}-4-methylpentanoyl]amino}acetate] the “FPRL-1 Ga16-CHO (Rel. eff.)” value was “(0.92)” and the EC50 was 3660 nM.
CSc1ccc(NC(=O)N[C@@H](CC(C)C)C(=O)NCC(=O)OC(C)(C)C)cc1 [Compound 68, tert-butyl {[(2S)-4-methyl-2-({[4-(methylsulfanyl)phenyl]carbamoyl}amino)pentanoyl]amino}acetate] was tested, and the “FPRL-1 Ga16-CHO (Rel. eff.)” value was “(0.98)” and the EC50 was 116 nM.
With CC(C)C[C@H](NC(=O)Nc1ccc(C(F)(F)F)cc1)C(=O)NC(C)(C)C(=O)O [Compound 69, 2-methyl-2-{[(2S)-4-methyl-2-({[4-(trifluoromethyl)phenyl]carbamoyl}amino)pentanoyl]amino}propanoic acid] the “FPRL-1 Ga16-CHO (Rel. eff.)” value was “(0.92)” and the EC50 was 2.3 nM.
With CSc1ccc(NC(=O)N[C@@H](CC(C)C)C(=O)NCC(=O)O)cc1 [Compound 70, {[(2S)-4-methyl-2-({[4-(methylsulfanyl)phenyl]carbamoyl}amino)pentanoyl]amino}acetic acid] the “FPRL-1 Ga16-CHO (Rel. eff.)” value was “(1.05)” and the EC50 was 2.95 nM.
In the case of CC(C)C[C@H](NC(=O)Nc1ccc(SC(F)(F)F)cc1)C(=O)NCC(=O)OC(C)(C)C [Compound 71, tert-butyl ({(2S)-4-methyl-2-[({4-[(trifluoromethyl)sulfanyl]phenyl}carbamoyl)amino]pentanoyl}amino)acetate], the “FPRL-1 Ga16-CHO (Rel. eff.)” value is reported as “(0.78)” and the EC50 is reported as 3100 nM.
CC(C)C[C@H](NC(=O)Nc1ccc(SC(F)(F)F)cc1)C(=O)NCC(=O)O [Compound 72, ({(2S)-4-methyl-2-[({4-[(trifluoromethyl)sulfanyl]phenyl}carbamoyl)amino]pentanoyl}amino)acetic acid] was tested, and the “FPRL-1 Ga16-CHO (Rel. eff.)” value was “(1.07)” and the EC50 was 560 nM.
For CC(C)C[C@H](NC(=O)Nc1ccc(Br)cc1)C(=O)NC(C)(C)C(=O)OC(C)(C)C [Compound 73, tert-butyl 2-{[(2S)-2-{[(4-bromophenyl)carbamoyl]amino}-4-methylpentanoyl]amino}-2-methylpropanoate], the “FPRL-1 Ga16-CHO (Rel. eff.)” value was “(1.16)” and the EC50 was 133 nM.
With CC(C)C[C@H](NC(=O)Nc1ccc(Br)cc1)C(=O)NC(C)(C)C(=O)O [Compound 74, 2-{[(2S)-2-{[(4-bromophenyl)carbamoyl]amino}-4-methylpentanoyl]amino}-2-methylpropanoic acid] the “FPRL-1 Ga16-CHO (Rel. eff.)” value was “(0.96)” and the EC50 was 1 nM.
With CC(C)C[C@H](NC(=O)Nc1ccc([S+](C)[O-])cc1)C(=O)NCC(=O)OC(C)(C)C (stereo partly drawn) [Compound 75, tert-butyl {[(2S)-4-methyl-2-({[4-(methylsulfinyl)phenyl]carbamoyl}amino)pentanoyl]amino}acetate] the “FPRL-1 Ga16-CHO (Rel. eff.)” value was “(0.97)” and the EC50 was 668 nM.
CC(C)C[C@H](NC(=O)Nc1ccc(S(C)(=O)=O)cc1)C(=O)NCC(=O)OC(C)(C)C [Compound 76, tert-butyl {[(2S)-4-methyl-2-({[4-(methylsulfonyl)phenyl]carbamoyl}amino)pentanoyl]amino}acetate] was tested, and the “FPRL-1 Ga16-CHO (Rel. eff.)” value was “(0.90)” and the EC50 was 1080 nM.
For CC(C)C[C@H](NC(=O)Nc1ccc([S+](C)[O-])cc1)C(=O)NCC(=O)O (stereo partly drawn) [Compound 77, {[(2S)-4-methyl-2-({[4-(methylsulfinyl)phenyl]carbamoyl}amino)pentanoyl]amino}acetic acid], the “FPRL-1 Ga16-CHO (Rel. eff.)” value was “(1.21)” and the EC50 was 358 nM.
In the case of CC(C)C[C@H](NC(=O)Nc1ccc(S(C)(=O)=O)cc1)C(=O)NCC(=O)O [Compound 78, {[(2S)-4-methyl-2-({[4-(methylsulfonyl)phenyl]carbamoyl}amino)pentanoyl]amino}acetic acid], the “FPRL-1 Ga16-CHO (Rel. eff.)” value is reported as “(1.12)” and the EC50 is reported as 459 nM.
In the case of CC(C)C[C@H](NC(=O)Nc1ccc(C(F)(F)F)cc1)C(=O)NC(C)(C)C(=O)OC(C)(C)C [Compound 79, tert-butyl 2-methyl-2-{[(2S)-4-methyl-2-({[4-(trifluoromethyl)phenyl]carbamoyl}amino)pentanoyl]amino}propanoate], the “FPRL-1 Ga16-CHO (Rel. eff.)” value is reported as “(1.07)” and the EC50 is reported as 1020 nM.
In the case of CSCC[C@H](NC(=O)Nc1ccc(Br)cc1)C(=O)NCC(=O)OC(C)(C)C [Compound 80, tert-butyl {[(2S)-2-{[(4-bromophenyl)carbamoyl]amino}-4-(methylsulfanyl)butanoyl]amino}acetate], the “FPRL-1 Ga16-CHO (Rel. eff.)” value is reported as “(0.98)” and the EC50 is reported as 127 nM.
For CC(C)(C)OC(=O)CNC(=O)[C@H](CCS(C)(=O)=O)NC(=O)Nc1ccc(Br)cc1 [Compound 81, tert-butyl {[(2S)-2-{[(4-bromophenyl)carbamoyl]amino}-4-(methylsulfonyl)butanoyl]amino}acetate], the “FPRL-1 Ga16-CHO (Rel. eff.)” value was “(0.97)” and the EC50 was 1240 nM.
In the case of CSCC[C@H](NC(=O)Nc1ccc(Br)cc1)C(=O)NCC(=O)O [Compound 82, {[(2S)-2-{[(4-bromophenyl)carbamoyl]amino}-4-(methylsulfanyl)butanoyl]amino}acetic acid], the “FPRL-1 Ga16-CHO (Rel. eff.)” value is reported as “(1.03)” and the EC50 is reported as 7 nM.
With CS(=O)(=O)CC[C@H](NC(=O)Nc1ccc(Br)cc1)C(=O)NCC(=O)O [Compound 83, {[(2S)-2-{[(4-bromophenyl)carbamoyl]amino}-4-(methylsulfonyl)butanoyl]amino}acetic acid] the “FPRL-1 Ga16-CHO (Rel. eff.)” value was “(1.01)” and the EC50 was 247 nM.
CC(C)(C)OC(=O)CNC(=O)C(Cc1c[nH]cn1)NC(=O)Nc1ccc(Br)cc1 (stereo not drawn) [Compound 84, tert-butyl {[2-{[(4-bromophenyl)carbamoyl]amino}-3-(1H-imidazol-4-yl)propanoyl]amino}acetate] was tested, and the “FPRL-1 Ga16-CHO (Rel. eff.)” value was “(0.95)” and the EC50 was 263 nM.
For O=C(O)CNC(=O)C(Cc1c[nH]cn1)NC(=O)Nc1ccc(Br)cc1 (stereo not drawn) [Compound 85, {[2-{[(4-bromophenyl)carbamoyl]amino}-3-(1H-imidazol-4-yl)propanoyl]amino}acetic acid], the “FPRL-1 Ga16-CHO (Rel. eff.)” value was “(0.95)” and the EC50 was 10 nM.
In the case of CC(C)C[C@@H](NC(=O)Nc1ccc(Br)cc1)C(=O)NC(C)(C)C(=O)OC(C)(C)C [Compound 86, tert-butyl 2-{[(2R)-2-{[(4-bromophenyl)carbamoyl]amino}-4-methylpentanoyl]amino}-2-methylpropanoate], the “FPRL-1 Ga16-CHO (Rel. eff.)” value is reported as “(0.74)” and the EC50 is reported as 2730 nM.
